# According to patent US9579406B2, “Phospholipid ether analogs as agents for detecting and locating cancer, and methods thereof” (Cellectar, Inc., priority 2004, dated 2017):
# “Also recorded” adds a separate entry of the source. Read-outs that look alike come from different tables or passages of the source.
# Tests used:
# [1] = MIRD extrapolation of rat tissue distribution data to permissible human dose; parameters: species or system human (from rat data)
# From the text: Accordingly the inventors have conducted the preliminary pharmacokinetic studies in human lung cancer patients at 1 mCi. Similar extrapolative calculation of the dosimetry for ^124I-NM404 afforded a similar 2 mCi dose level again based on projected dosimetry to the adrenals and bladder wall. Preliminary human data (5 patients), however, indicate very little uptake and retention of the agent into any abdominal organ (including the bladder and adrenals) with the exception of the liver which returns to background levels within 11 days.
# Dosing of radioiodinated ^124I NM404 will be based on MIRD extrapolation of the iodine-131 dosimetry data derived from this ongoing study. The ^131I-NM404 dose is currently calculated as follows: Animal biodistribution data is used to determine the percentage of injected dose/organ at varying time points. These animal data are extrapolated to man by means of MIRD formalism (MIRDOSE PC v3.1) using standard conversion factors for differences in organ mass and anatomy between rat and standard man, providing predicted human organ doses; Based on these predicted doses, the permissible mCi dose to be injected into humans is determined using the maximal doses legally permitted by RDRC regulations for specific human tissue as defined in the Federal Register (21CFR Part 361.1) e.g. whole body, blood, blood forming tissues, eye lens, gonads—3 rem/dose; any other tissue—5 rem/dose. This approach was previously used to bring both NM324 and NM404 to clinical use, resulting in a calculated dose of 1 mCi.
# [2] = type: in vivo, human
# [3] = system: non-small cell lung cancer; conditions: human, in vivo
# Experimental: (§1) The preparation dispensed by the Nuclear Pharmacy will be certified as sterile and pyrogen-free. The subject will be monitored for adverse reactions during and after the infusion. Vital signs will be checked immediately after the infusion, and at 60 minute intervals up to four hours post-injection. They will be observed for adverse events throughout this time. […] Vital signs will be monitored at these times. Any adverse reactions experienced by the subjects will be recorded.
# [4] = system: non-small cell lung cancer; experiment: Planar gamma-camera scintigraphy with 131I-NM-404 in NSCLC patients; conditions: <1 mCi, n=3
# Experimental: as §1
# [5] = system: Walker-256 carcinosarcoma; experiment: Tissue distribution of radioactivity in rats bearing Walker-256 carcinosarcoma; type: in vivo, rat
# MAT LyLu cells = experiment: Gamma camera scintigraphy in rat Dunning R3327 (MAT LyLu) prostate cancer model; conditions: tumor-bearing rats, 24 and 48 hours post injection
# From the text: The MatLyLu (Dunning R3327 rat) model, a rat prostate tumor line, was used specifically to screen 9 specific analogs prior to entering them into control for dosimetry and tumor-bearing animals for determining tumor/background ratios.
# In order to expedite the screening process and minimize the number of tumor bearing animals utilized in multiple time point tissue distribution studies, new radioiodinated homologs were imaged by gamma camera scintigraphy in the rat Dunning R3337 (MAT LyLu strain) prostate cancer model. […] Gamma camera images were obtained at multiple time points including 24 and 48 hours post injection.
# The new PLE analogs were synthesized and radiolabeled with ^125I for initial image analysis in Copenhagen rats bearing Dunning R3327 prostate tumors.
# Phospholipase C (PLC) = target: T1, Phospholipase C (PLC) (Bacillus cereus, UniProt P09598); experiment: PLC substrate assay; type: biochemical
# T1 construct: PLC isolated from Bacillus cereus; host or cells: Bacillus cereus (natural source)
# Experimental: Formal metabolism studies were conducted on several PLE analogs including NM324, the predecessor of NM404. In these studies, each agent was examined to determine their ability to serve as substrates for enzymes associated with PLE metabolism. Three major enzymatic pathways are involved in the metabolism of PLE. O-Alkyl glycerol monooxygenase (AGMO) is responsible for cleavage of the alkyl ether linkage at C-1 to form either the long chain fatty alcohol or subsequently, the corresponding fatty acid. Phospholipases C (PLC) and D (PLD), on the other hand, give rise to the glycerol or phosphatidic acid products, respectively.
# [6] = cited from earlier work
# [7] = mouse; cited from earlier work
# serum proteins = conditions: cited from earlier work
# CNS-1 glioma brain tumor = experiment: microPET imaging in rat CNS-1 brain tumor model; type: in vivo; conditions: 24 h after iv injection
# Experimental: The inventors recently successfully radiolabeled NM404 twice with iodine-124 from a commercial vendor (Eastern Isotopes). The radiochemical yield (>60% mean isolated yield, >99% purity) was very similar to what we usually obtain with commercial sources of iodine-125 or 131 sodium iodide. The PET imaging characteristics of ^124I-NM404 in a rat CNS-1 brain tumor model (FIG. 24) was investigated. Imaging times in this preliminary study were limited to 24 h and 4 days post injection due to microPET scanner availability. […] These compounds may then be used for extending NM404 PET utility into human cancer patients.
# [8] = system: A549 lung, PC-3 prostate, c-myc pancreatic tumors; experiment: microPET imaging in lung, prostate and pancreatic mouse tumor models; type: in vivo; conditions: any time point
# From the text: Human pharmacokinetic studies have confirmed this finding as only 4% of the agent is cleared renally within 4 days of iv injection (majority is excreted via GI route).
# [9] = Blood plasma kinetics in rats; type: in vivo; conditions: rat, read-out: elimination half life time in plasma (converted)
# lung cancer = experiment: Initial clinical studies of NM-324 in lung cancer patients; type: in vivo, human; conditions: for liver radioactivity in patients: human, in vivo; for tumor uptake in cancer patients: scintigraphy
# [10] = system: carrageenan-induced granulomas; experiment: Uptake in carrageenan-induced granulomas; parameters: species or system rats; conditions: rat, in vivo
# From the text: This lack of specificity is a significant clinical issue in patients with cancer.
# [11] = system: several animal tumor models; experiment: Animal tumor localization studies with first generation PLE analogs; type: in vivo; conditions: iodine-125 labeled; Walker 256, Lewis mammary, Dunning R3327, Vx2, human xenografts
# From the text: Phospholipid ethers can easily be labeled with iodine radioisotopes using radiolabeling methods developed in the labs. The iodophenyl phospholipid ether analogs are specifically designed so that the radioiodine affixed to each molecule is stable to facile in vivo deiodination. […] The inventors have now synthesized over 20 radiolabeled PLE compounds and tested in vitro and in vivo. […] Optimal tumor localization of these agents takes from one to several days due to the more rapid clearance of the radioactivity from normal tissues relative to tumor.
# rat mammary tumor = experiment: Biodistribution in rat mammary tumor model; type: in vivo
# Experimental: In one such example in a rat mammary tumor model, tumor-to-normal tissue ratios reached a maximum at 96 hours with a tumor-to-blood ratio of 8.6 and tumor-to-muscle ratio of 20:1.
# Extensive biodistribution data for the prototype agent ^125I-NM324 in several tumor models has previously been reported. […] For example, in a rat mammary tumor model, tumor-to-normal tissue ratios reached a maximum at 96 hours with a tumor-to-blood ratio of 8.6 and tumor-to-muscle ratio of 20:1. […] Comparative biodistribution data for NM324 and NM404 in SCID mice have been obtained in prostate and A549 lung cancer tumor models.
# [12] = rats, cited from earlier work
# T1 sequence (P09598 39-283 limits assumed): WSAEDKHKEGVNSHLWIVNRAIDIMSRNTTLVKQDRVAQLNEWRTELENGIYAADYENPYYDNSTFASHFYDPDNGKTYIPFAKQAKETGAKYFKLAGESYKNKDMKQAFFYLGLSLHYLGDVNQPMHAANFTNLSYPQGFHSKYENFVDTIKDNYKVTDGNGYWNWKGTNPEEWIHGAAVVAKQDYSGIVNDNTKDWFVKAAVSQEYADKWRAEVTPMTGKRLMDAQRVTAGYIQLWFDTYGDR
smiles,measurement,setting,value
C[N+](C)(C)CCOP(=O)([O-])OCCCCCCCCCCCCCCCCCCc1ccc([131I])cc1 [^131I-NM404],starting maximum dose,[1],around 1.9 mCi
same,5 Rad limiting dose to the adrenals and bladder wall,[1]; 131I label,2 mCi
same,time for liver to return to background levels,[2]; 5 patients,≤ 11 days
same,dose level safe to administer,[2]; advanced non-small cell lung cancer subjects,0.0003 mg/kg
same,safety,[2]; first-in-human pharmacokinetic studies,safe
same,crossing of the blood brain barrier,[3],doesn't cross the intact blood brain barrier
same,tumor uptake and retention,[4],tumor uptake and prolonged retention in the primary lung tumors
C[N+](C)(C)CCOP(=O)([O-])OCCCCCCCc1ccc(I)cc1 [NM-396],radioactivity in all of the organs surveyed,[5]; 24 hours,< 0.10 % ID/g
same,radioactivity in the thyroid,[5]; 24 hours,213 % ID/g
same,localization in tumor tissue,[5]; all time points examined,did not localize in tumor tissue at any of the time points examined
C[N+](C)(C)CCOP(=O)([O-])OCCCCCCCCCCCCc1ccc(I)cc1 [NM-346],tumor uptake and liver/abdominal radioactivity by gamma camera imaging,MAT LyLu cells,readily visualized
"COC(COCCCCCCCCCCCCCCCCCCc1ccc(I)cc1)COP(=O)([O-])OCC[N+](C)(C)C (racemic) [NM-410, 1-O-[18-(p-Iodophenyl)octadecyl]-2-O-methyl-rac-glycero-3-phosphocholine]",tumor uptake and liver/abdominal radioactivity by gamma camera imaging,MAT LyLu cells,"high hepatic uptake, significant abdominal accumulation and retention or poor tumor uptake and retention; also recorded: high radioactivity levels in the liver and abdomen with little to no uptake of the agent into tumors"
same,tumor uptake and liver/abdominal radioactivity by gamma camera imaging,MAT LyLu cells; listed as 10,retarded tumor uptake significantly
"[3H]C(CCCCCC)C([3H])CCCCCCCC(=O)O[C@H](COC(=O)CCCCCCCCCCCCCCC)COP(=O)([O-])OCC[N+](C)(C)C (stereo partly drawn) [DPPC, 1-palmitoyl-2-[3H]-palmitoyl-L-3-phosphatidylcholine]",hydrolysis by PLC,Phospholipase C (PLC),underwent significant hydrolysis
"C[N+](C)(C)CCOP(=O)([O-])OCCCOCCCCCCCCCCCCCCCCCCc1ccc(I)cc1 [NM-412, 1-O-[18-(p-Iodophenyl)octadecyl]-1,3-propanediol-3-phosphocholine]",tumor uptake and liver/abdominal radioactivity by gamma camera imaging,MAT LyLu cells,high levels of liver and abdominal radioactivity; also recorded: tumor uptake accompanied by high liver and abdominal radioactivity levels
same,tumor uptake and liver/abdominal radioactivity by gamma camera imaging,MAT LyLu cells; listed as 8,fairly high levels of liver and abdominal radioactivity
CCCCCCCCCCCCCCCCCCOCC(COP(=O)([O-])OCC[N+](C)(C)C)OC (stereo not drawn) [ET-18-OCH3],maximum tolerated dose,[6]; intravenous,50 mg/kg
same,adverse effects reported,[6]; up to 4 hours post-injection,pulmonary edema impaired hepatic function and hemolysis
same,LD50 (oral),[7],200 mg/kg
same,ether lipid bound to HDL,serum proteins,about 6%
same,ether lipid bound to albumin,serum proteins,71%
C[N+](C)(C)CCOP(=O)([O-])OCCCCCCCCCCCCCCCCCCc1ccc([124I])cc1 [^124I-NM404],dose level based on projected dosimetry to the adrenals and bladder wall,[1]; 124I label,2 mCi
same,tracer uptake in brain tumor and surrounding brain,CNS-1 glioma brain tumor,intense uptake of the tracer in the brain tumor accompanied by little or no uptake in surrounding intact brain tissue
same,bladder activity,[8],lack of bladder activity at any time point; also recorded: No bladder activity was evident at any time point
"C[N+](C)(C)CCOP(=O)([O-])OCCCCCCCCCCCCc1cccc(I)c1 [NM-324, 12-(3-iodophenyl)-dodecylphosphocholine]",calculated dose for clinical use,[1],1 mCi
same,half-life,[9],2.43 h
same,liver radioactivity in patients,lung cancer,high liver radioactivity
same,liver radioactivity in patients,lung cancer; listed as NM324,unacceptable accumulation in liver tissue
same,lung tumor uptake,"lung cancer; images 6 h post injection, lung cancer patient",intense lung tumor uptake
same,tumor uptake in cancer patients,lung cancer,excellent tumor uptake
same,tumor uptake in cancer patients,lung cancer; listed as 131I-NM-324,Uptake is seen in the left lingular lung cancer (T) with increasing tumor-to-background ratios over time
same,uptake and retention in granulomas,[10],no uptake and retention
same,tumor localization,[11],selectively localized in tumors over time
same,tumor-to-blood ratio,rat mammary tumor; 96 hours,8.6
same,time of maximum tumor-to-normal tissue ratios,"rat mammary tumor; rat, in vivo",96 h
C[N+](C)(C)CCOP(=O)([O-])OCCCCCCCCCCCCCCCc1ccc(I)cc1 [NM-397],increase in tumor uptake versus C12 analog 4,[5]; 24 h,2 fold
same,radioactivity in the duodenum (maximum),[5]; 48 hours after administration,1.38±0.24 % ID/g
same,radioactivity in the tumor (peak),[5]; 48 hours after administration,1.65±0.23 % of ID/g
same,blood levels,[5]; 120 hours,0.07±0.00 % of ID/g
same,time of peak tumor radioactivity,[5]; after administration,48 h
same,tumor uptake and liver/abdominal radioactivity by gamma camera imaging,MAT LyLu cells,readily visualized
"CCCCCCCCCCCCCCCCOP(=O)([O-])OCC[N+](C)(C)C [Miltefosine, hexadecyl phosphocholine]",maximum tolerated dose,[12]; over a 4-week period,39 nmol/kg
same,LD50,[12],606 nmol/kg
"O=C([O-])CC(O)(CC(=O)[O-])C(=O)[O-].[Ga+3] [Gallium citrate, reference compound]",uptake and retention in granulomas,[10],did indeed concentrate significantly in the granulomatous lesions
COC(COCCCCCCCCCCCCc1cccc([125I])c1)COP(=O)([O-])OCC[N+](C)(C)C (stereo not drawn) [NM-294],tumor localization,[11],selectively localized in tumors over time
